Data reported in patent US9149038B2, “4-amino-6-(heterocyclic)picolinates and 6-amino-2-(heterocyclic)pyrimidine-4-carboxylates and their use as herbicides” (Dow AgroSciences LLC, priority 2013, dated 2015).
Where two headings read alike, the source gives them in different places.

System: Direct Seeded Rice and weed species
Assay: Postemergence herbicidal activity in direct seeded rice, visual rating after 20-22 days and probit GR20/GR50/GR80/GR90 (Table 14)
Assay type: in vivo
Conditions: for pest or weed control at 17.5 g/ha / pest or weed control at 35 g/ha / pest or weed control at 70 g/ha: post-emergence, 504 h, postemergence; for pest or weed control at 17.5 g/ha: 17.5 g ai/ha; for pest or weed control at 35 g/ha: 35 g ai/ha; for pest or weed control at 70 g/ha: 70 g ai/ha
Text: Herbicidal evaluations were made visually on a scale of 0 to 100 where 0 represents no activity and 100 represents complete plant death. Seeds or nutlets of the desired test plant species were planted in a soil matrix prepared by mixing a loam soil (43 percent silt, 19 percent clay, and 38 percent sand, with a pH of about 8.1 and an organic matter content of about 1.5 percent) and river sand in an 80 to 20 ratio. The soil matrix was contained in plastic pots with a surface area of 139.7 cm^2. When required to ensure good germination and healthy plants, a fungicide treatment and/or other chemical or physical treatment was applied. The plants were grown for 10-17 d in a greenhouse with an approximate 14-h photoperiod which was maintained at about 29° C. during the day and 26° C. during the night. Nutrients and water were added on a regular basis and supplemental lighting was provided with overhead metal halide 1000-Watt lamps as necessary. The plants were employed for testing when they reached the second or third true leaf stage. A weighed amount, determined by the highest rate to be tested, of each test compound was placed in 25 mL glass vials and dissolved in a volume of 97:3 v/v acetone-DMSO to obtain 12× stock solutions. […] The concentrated stock solutions were added to the spray solutions so that the final acetone and DMSO concentrations were 16.2% and 0.5%, respectively. Spray solutions were diluted to the appropriate final concentrations with the addition of 10 mL of an aqueous mixture of 1.5% (v/v) Agri-dex crop oil concentrate. The final spray solutions contained 1.25% (v/v) Agri-dex crop oil concentrate. Compound requirements are based upon a 12 mL application volume at a rate of 187 L/ha. Formulated compounds were applied to the plant material with an overhead Mandel track sprayer equipped with […] nozzles calibrated to deliver 187 L/ha over an application area of 0.503 square meters (m^2) at a spray height of 18 inches (43 cm) above average plant canopy height. Control plants were sprayed in the same manner with the solvent blank. The treated plants and control plants were placed in a greenhouse as described above and watered by sub-irrigation to prevent wash-off of the test compounds. After 20-22 days, the condition of the test plants, compared with that of the untreated plants, was determined visually and scored on a scale of 0 to 100 percent where 0 corresponds to no injury and 100 corresponds to complete kill and are presented as indicated in Table 4. By applying the well-accepted probit analysis as described by J. Berkson in Journal of the American Statistical Society, 48, 565 (1953) and by D. Finney in “Probit Analysis” Cambridge University Press (1952), herbicidal injury of a specific compound at various rates can be used to calculate GR20, GR50, GR80 and GR90 values, which are defined as growth reduction factors that correspond to the effective dose of herbicide required to provide plant growth reduction (GR) of 20 percent, 50 percent, 80 percent and 90 percent, respectively. Probit analysis was applied to data collected from multiple dose rates of individual compounds utilizing the procedures explained in the following examples. The data for some of the dose rates and analysis of all of the dose rates are captured in the following tables.

[1] = BRAPP (broadleaf signalgrass, Brachiaria platyphylla), read-out: Visual Growth Reduction (%) 21 Days After Application BRAPP
[2] = CYPDI (small-flower flatsedge, Cyperus difformis), read-out: Visual Growth Reduction (%) 21 Days After Application CYPDI
[3] = CYPES (yellow nutsedge, Cyperus esculentus), read-out: Visual Growth Reduction (%) 21 Days After Application CYPES
[4] = CYPIR (rice flatsedge, Cyperus iria), read-out: Visual Growth Reduction (%) 21 Days After Application CYPIR
[5] = DIGSA (large crabgrass, Digitaria sanguinalis), read-out: Visual Growth Reduction (%) 21 Days After Application DIGSA
[6] = ECHCG (barnyardgrass, Echinochloa crus-galli), read-out: Visual Growth Reduction (%) 21 Days After Application ECHCG
[7] = ECHCO (junglerice, Echinochloa colonum), read-out: Visual Growth Reduction (%) 21 Days After Application ECHCO
[8] = LEFCH (Chinese sprangletop, Leptochloa chinensis), read-out: Visual Growth Reduction (%) 21 Days After Application LEFCH
[9] = ORYSJ (Oryza sativa, rice crop), read-out: Visual Growth Reduction (%) 21 Days After Application ORYSJ
[10] = ORYSK (Oryza sativa, rice crop), read-out: Visual Growth Reduction (%) 21 Days After Application ORYSK
[11] = SCPJU (Japanese bulrush, Schoenoplectus juncoides Roxb.), read-out: Visual Growth Reduction (%) 21 Days After Application SCPJU
[12] = SEBEX (hemp sesbania, Sesbania exaltata), given as number, read-out: Visual Growth Reduction (%) 21 Days After Application SEBEX

Nc1c(F)c(-c2cc3c(cc2F)OC(F)(F)O3)nc(C(=O)O)c1Cl [Compound 13]
GR50 BRAPP (BRAPP (Brachiaria platyphylla), probit analysis, dose for 50 percent growth reduction): 3 g ai/ha
GR80 BRAPP (BRAPP (Brachiaria platyphylla), probit analysis, dose for 80 percent growth reduction): 5 g ai/ha
GR90 BRAPP (BRAPP (Brachiaria platyphylla), probit analysis, dose for 90 percent growth reduction): 7 g ai/ha
GR50 CYPDI (CYPDI (Cyperus difformis), probit analysis, dose for 50 percent growth reduction): 0.04 g ai/ha
GR80 CYPDI (CYPDI (Cyperus difformis), probit analysis, dose for 80 percent growth reduction): 1 g ai/ha
GR90 CYPDI (CYPDI (Cyperus difformis), probit analysis, dose for 90 percent growth reduction): 2 g ai/ha
GR50 CYPES (CYPES (Cyperus esculentus), probit analysis, dose for 50 percent growth reduction): 0.04 g ai/ha
GR50 CYPIR (CYPIR (Cyperus iria), probit analysis, dose for 50 percent growth reduction): 0.04 g ai/ha
GR50 DIGSA (DIGSA (Digitaria sanguinalis), probit analysis, dose for 50 percent growth reduction): 0.05 g ai/ha
GR80 DIGSA (DIGSA (Digitaria sanguinalis), probit analysis, dose for 80 percent growth reduction): 1 g ai/ha
GR90 DIGSA (DIGSA (Digitaria sanguinalis), probit analysis, dose for 90 percent growth reduction): 6 g ai/ha
GR50 ECHCG (ECHCG (Echinochloa crus-galli), probit analysis, dose for 50 percent growth reduction): 0.01 g ai/ha
GR80 ECHCG (ECHCG (Echinochloa crus-galli), probit analysis, dose for 80 percent growth reduction): 1 g ai/ha
GR90 ECHCG (ECHCG (Echinochloa crus-galli), probit analysis, dose for 90 percent growth reduction): 10 g ai/ha
GR50 ECHCO (ECHCO (Echinochloa colonum), probit analysis, dose for 50 percent growth reduction): 1 g ai/ha
GR80 ECHCO (ECHCO (Echinochloa colonum), probit analysis, dose for 80 percent growth reduction): 3 g ai/ha
GR90 ECHCO (ECHCO (Echinochloa colonum), probit analysis, dose for 90 percent growth reduction): 6 g ai/ha
GR50 LEFCH (LEFCH (Leptochloa chinensis), probit analysis, dose for 50 percent growth reduction): 14 g ai/ha
GR80 LEFCH (LEFCH (Leptochloa chinensis), probit analysis, dose for 80 percent growth reduction): 25 g ai/ha
GR90 LEFCH (LEFCH (Leptochloa chinensis), probit analysis, dose for 90 percent growth reduction): 33 g ai/ha
GR20 ORYSJ (ORYSJ (Oryza sativa, rice crop), probit analysis, dose for 20 percent growth reduction): 6 g ai/ha
GR20 ORYSK (ORYSK (Oryza sativa, rice crop), probit analysis, dose for 20 percent growth reduction): 15 g ai/ha
GR50 SCPJU (SCPJU (Schoenoplectus juncoides Roxb.), probit analysis, dose for 50 percent growth reduction): 0.0001 g ai/ha
GR80 SCPJU (SCPJU (Schoenoplectus juncoides Roxb.), probit analysis, dose for 80 percent growth reduction): 0.0001 g ai/ha
GR90 SCPJU (SCPJU (Schoenoplectus juncoides Roxb.), probit analysis, dose for 90 percent growth reduction): 0.0001 g ai/ha
GR50 SEBEX (SEBEX (Sesbania exaltata), probit analysis, dose for 50 percent growth reduction): 11 g ai/ha
GR80 SEBEX (SEBEX (Sesbania exaltata), probit analysis, dose for 80 percent growth reduction): 16 g ai/ha
GR90 SEBEX (SEBEX (Sesbania exaltata), probit analysis, dose for 90 percent growth reduction): 20 g ai/ha
pest or weed control at 17.5 g/ha [1]: 95 to 100%
pest or weed control at 35 g/ha [1]: 95 to 100%
pest or weed control at 70 g/ha [1]: 95 to 100%
pest or weed control at 17.5 g/ha [2]: 95 to 100%
pest or weed control at 35 g/ha [2]: 95 to 100%
pest or weed control at 70 g/ha [2]: 95 to 100%
pest or weed control at 17.5 g/ha [3]: 95 to 100%
pest or weed control at 35 g/ha [3]: 95 to 100%
pest or weed control at 70 g/ha [3]: 95 to 100%
pest or weed control at 17.5 g/ha [4]: 95 to 100%
pest or weed control at 35 g/ha [4]: 95 to 100%
pest or weed control at 70 g/ha [4]: 95 to 100%
pest or weed control at 17.5 g/ha [5]: 95 to 100%
pest or weed control at 35 g/ha [5]: 95 to 100%
pest or weed control at 70 g/ha [5]: 95 to 100%
pest or weed control at 17.5 g/ha [6]: 95 to 100%
pest or weed control at 35 g/ha [6]: 85 to 94%
pest or weed control at 70 g/ha [6]: 95 to 100%
pest or weed control at 17.5 g/ha [7]: 95 to 100%
pest or weed control at 35 g/ha [7]: 95 to 100%
pest or weed control at 70 g/ha [7]: 95 to 100%
pest or weed control at 17.5 g/ha [8]: 60 to 74%
pest or weed control at 35 g/ha [8]: 95 to 100%
pest or weed control at 70 g/ha [8]: 95 to 100%
pest or weed control at 17.5 g/ha [9]: 45 to 59%
pest or weed control at 35 g/ha [9]: 85 to 94%
pest or weed control at 70 g/ha [9]: 95 to 100%
pest or weed control at 17.5 g/ha [10]: 0 to 29%
pest or weed control at 35 g/ha [10]: 45 to 59%
pest or weed control at 70 g/ha [10]: 60 to 74%
pest or weed control at 17.5 g/ha [11]: 95 to 100%
pest or weed control at 35 g/ha [11]: 95 to 100%
pest or weed control at 70 g/ha [11]: 95 to 100%
pest or weed control at 17.5 g/ha [12]: 95%
pest or weed control at 35 g/ha [12]: 100%
pest or weed control at 70 g/ha [12]: 100%
